Experiments:
[1] = tested on: Trypanosoma cruzi; test: Trypanocidal activity against Trypanosoma cruzi TINF/CH/1956/Tulahuen DTU 6 amastigotes infected in African green monkey Vero cells after 72 hrs by Giemsa-staining based microscopic assay; format: functional, organism-based; conditions: TINF/CH/1956/Tulahuen DTU 6, Vero
[2] = Selectivity index, ratio of IC50 for African green monkey Vero cells to IC50 for Trypanosoma cruzi IRHOD/CO/2008/SN3 DTU 1 amastigotes infected in African green monkey Vero cells; format: toxicity; conditions: read-out: Ratio IC50
[3] = Selectivity index, ratio of IC50 for African green monkey Vero cells to IC50 for Trypanosoma cruzi TINF/CH/1956/Tulahuen DTU 6 epimastigotes; format: toxicity; conditions: read-out: Ratio IC50
[4] = tested on: Trypanosoma cruzi; test: Trypanocidal activity against Trypanosoma cruzi IRHOD/CO/2008/SN3 DTU 1 trypomastigotes derived from infected Balb/c mouse after 72 hrs by resazurin dye based assay; format: functional, organism-based; conditions: IRHOD/CO/2008/SN3 DTU 1, 72 h
[5] = tested on: Trypanosoma cruzi; test: Trypanocidal activity against Trypanosoma cruzi MHOM/Pe/2011/Arequipa DTU 5 epimastigotes after 72 hrs by resazurin dye based assay; format: functional, organism-based; conditions: MHOM/Pe/2011/Arequipa DTU 5, 72 h
[6] = tested on: Trypanosoma cruzi; test: Trypanocidal activity against Trypanosoma cruzi TINF/CH/1956/Tulahuen DTU 6 epimastigotes after 72 hrs by resazurin dye based assay; format: functional, organism-based; conditions: TINF/CH/1956/Tulahuen DTU 6, 72 h
[7] = tested on: Trypanosoma cruzi; test: Trypanocidal activity against Trypanosoma cruzi TINF/CH/1956/Tulahuen DTU 6 trypomastigotes derived from infected Balb/c mouse after 72 hrs by resazurin dye based assay; format: functional, organism-based; conditions: TINF/CH/1956/Tulahuen DTU 6, 72 h
[8] = tested on: Trypanosoma cruzi; test: Trypanocidal activity against Trypanosoma cruzi IRHOD/CO/2008/SN3 DTU 1 epimastigotes after 72 hrs by resazurin dye based assay; format: functional, organism-based; conditions: IRHOD/CO/2008/SN3 DTU 1, 72 h
[9] = tested on: Trypanosoma cruzi; test: Trypanocidal activity against Trypanosoma cruzi IRHOD/CO/2008/SN3 DTU 1 amastigotes infected in African green monkey Vero cells after 72 hrs by Giemsa-staining based microscopic assay; format: functional, organism-based; conditions: IRHOD/CO/2008/SN3 DTU 1, Vero
[10] = Selectivity index, ratio of IC50 for African green monkey Vero cells to IC50 for Trypanosoma cruzi TINF/CH/1956/Tulahuen DTU 6 amastigotes infected in African green monkey Vero cells; format: toxicity; conditions: read-out: Ratio IC50
[11] = Selectivity index, ratio of IC50 for African green monkey Vero cells to IC50 for Trypanosoma cruzi IRHOD/CO/2008/SN3 DTU 1 trypomastigotes derived from infected Balb/c mouse; format: toxicity; conditions: read-out: Ratio IC50
[12] = Selectivity index, ratio of IC50 for African green monkey Vero cells to IC50 for Trypanosoma cruzi TINF/CH/1956/Tulahuen DTU 6 trypomastigotes derived from infected Balb/c mouse; format: toxicity; conditions: read-out: Ratio IC50
[13] = Selectivity index, ratio of IC50 for African green monkey Vero cells to IC50 for Trypanosoma cruzi IRHOD/CO/2008/SN3 DTU 1 epimastigotes; format: toxicity; conditions: read-out: Ratio IC50
[14] = tested on: Vero; test: Cytotoxicity against African green monkey Vero cells assessed as reduction in cell viability after 72 hrs by resazurin dye based assay; conditions: Chlorocebus sabaeus
[15] = Selectivity index, ratio of IC50 for African green monkey Vero cells to IC50 for Trypanosoma cruzi MHOM/Pe/2011/Arequipa DTU 5 epimastigotes; format: toxicity; conditions: read-out: Ratio IC50
[16] = Selectivity index, ratio of IC50 for African green monkey Vero cells to IC50 for Trypanosoma cruzi MHOM/Pe/2011/Arequipa DTU 5 amastigotes infected in African green monkey Vero cells; format: toxicity; conditions: read-out: Ratio IC50
[17] = Selectivity index, ratio of IC50 for African green monkey Vero cells to IC50 for Trypanosoma cruzi MHOM/Pe/2011/Arequipa DTU 5 trypomastigotes derived from infected Balb/c mouse; format: toxicity; conditions: read-out: Ratio IC50
[18] = tested on: Trypanosoma cruzi; test: Trypanocidal activity against Trypanosoma cruzi MHOM/Pe/2011/Arequipa DTU 5 trypomastigotes derived from infected Balb/c mouse after 72 hrs by resazurin dye based assay; format: functional, organism-based; conditions: MHOM/Pe/2011/Arequipa DTU 5, 72 h
[19] = tested on: Trypanosoma cruzi; test: Trypanocidal activity against Trypanosoma cruzi MHOM/Pe/2011/Arequipa DTU 5 amastigotes infected in African green monkey Vero cells after 72 hrs by Giemsa-staining based microscopic assay; format: functional, organism-based; conditions: MHOM/Pe/2011/Arequipa DTU 5, Vero

CCCCCCCCCCCCOc1c(N(C)CCCN(C)C)c(=O)c1=O
IC50 [1]: 25.5 µM | selectivity ratio [2]: 10.3 | selectivity ratio [3]: 19.9 | IC50 [4]: 24.1 µM | IC50 [5]: 36.2 µM | IC50 [6]: 14.6 µM | IC50 [7]: 19.1 µM | IC50 [8]: 19.4 µM | IC50 [9]: 28.4 µM | selectivity ratio [10]: 11.4 | selectivity ratio [11]: 12.1 | selectivity ratio [12]: 15.3 | selectivity ratio [13]: 15 | IC50 [14]: 291 µM | selectivity ratio [15]: 8

CCCCCCCCNc1c(N(C)CCCN(C)C)c(=O)c1=O
selectivity ratio [3]: 14.2 | IC50 [5]: 102 µM | IC50 [6]: 82 µM | IC50 [8]: 87.8 µM | selectivity ratio [13]: 13.2 | IC50 [14]: 1150 µM | selectivity ratio [15]: 11.4

CCCCCCCCCCCC[N+](C)(C)CCCN(C)c1c(OCC)c(=O)c1=O
selectivity ratio [3]: 4 | IC50 [5]: 63.3 µM | IC50 [6]: 89.1 µM | IC50 [8]: 74.5 µM | selectivity ratio [13]: 4.7 | IC50 [14]: 353 µM | selectivity ratio [15]: 5.6

CN(C)CCCN(C)c1c(N(C)CCCN(C)C)c(=O)c1=O
selectivity ratio [3]: 3.2 | IC50 [5]: 107 µM | IC50 [6]: 360 µM | IC50 [8]: 404 µM | selectivity ratio [13]: 2.8 | IC50 [14]: 1140 µM | selectivity ratio [15]: 10.6

CCCCNc1c(N(C)CCCN(C)C)c(=O)c1=O
IC50 [1]: 11.7 µM | selectivity ratio [2]: 33.5 | selectivity ratio [3]: 48.3 | IC50 [4]: 7.5 µM | IC50 [5]: 12.4 µM | IC50 [6]: 9.1 µM | IC50 [7]: 8.9 µM | IC50 [8]: 15.2 µM | IC50 [9]: 13.1 µM | selectivity ratio [10]: 37.5 | selectivity ratio [11]: 58.6 | selectivity ratio [16]: 29.9 | selectivity ratio [12]: 49.3 | selectivity ratio [13]: 28.9 | selectivity ratio [17]: 42.2 | IC50 [14]: 439 µM | IC50 [18]: 10.4 µM | IC50 [19]: 14.7 µM | selectivity ratio [15]: 35.4

CCNc1c(N(C)CCCN(C)C)c(=O)c1=O
IC50 [1]: 31.6 µM | selectivity ratio [2]: 16.5 | selectivity ratio [3]: 32.4 | IC50 [4]: 28 µM | IC50 [5]: 41.3 µM | IC50 [6]: 27.8 µM | IC50 [7]: 26.6 µM | IC50 [8]: 41 µM | IC50 [9]: 54.5 µM | selectivity ratio [10]: 28.5 | selectivity ratio [11]: 32.1 | selectivity ratio [16]: 32.3 | selectivity ratio [12]: 33.8 | selectivity ratio [13]: 22 | selectivity ratio [17]: 30.9 | IC50 [14]: 900 µM | IC50 [18]: 29.1 µM | IC50 [19]: 27.8 µM | selectivity ratio [15]: 21.8

CCCCCCCCCCCC[N+](C)(C)CCCN(C)c1c(O)c(=O)c1=O
selectivity ratio [3]: 2.4 | IC50 [5]: 22.1 µM | IC50 [6]: 66.1 µM | IC50 [8]: 33.1 µM | selectivity ratio [13]: 4.8 | IC50 [14]: 160 µM | selectivity ratio [15]: 7.2

CN(C)CCCN(C)c1c(NCCCN(C)CCCNc2c(N(C)CCCN(C)C)c(=O)c2=O)c(=O)c1=O
selectivity ratio [3]: 9 | IC50 [5]: 177 µM | IC50 [6]: 241 µM | IC50 [8]: 311 µM | selectivity ratio [13]: 7 | IC50 [14]: 2170 µM | selectivity ratio [15]: 12.2

CCCCCCCCCCCCCCCCOP(=O)([O-])OCC[N+](C)(C)C [MILTEFOSINE]
IC50 [1]: 31.8 µM | selectivity ratio [2]: 0.5 | selectivity ratio [3]: 0.9 | IC50 [4]: 34.8 µM | IC50 [5]: 20.8 µM | IC50 [6]: 22.9 µM | IC50 [7]: 20.1 µM | IC50 [8]: 55.9 µM | IC50 [9]: 39.7 µM | selectivity ratio [10]: 0.7 | selectivity ratio [11]: 0.6 | selectivity ratio [16]: 0.7 | selectivity ratio [12]: 1.1 | selectivity ratio [13]: 0.4 | selectivity ratio [17]: 1.2 | IC50 [14]: 21.6 µM | IC50 [18]: 18.8 µM | IC50 [19]: 29.6 µM | selectivity ratio [15]: 1

CN(C)CCCN(C)c1c(N)c(=O)c1=O
IC50 [1]: 51.3 µM | selectivity ratio [2]: 17.1 | selectivity ratio [3]: 25.1 | IC50 [4]: 30.2 µM | IC50 [5]: 42.3 µM | IC50 [6]: 42.6 µM | IC50 [7]: 33.6 µM | IC50 [8]: 33.7 µM | IC50 [9]: 62.6 µM | selectivity ratio [10]: 20.8 | selectivity ratio [11]: 35.4 | selectivity ratio [16]: 27 | selectivity ratio [12]: 31.8 | selectivity ratio [13]: 31.8 | selectivity ratio [17]: 32.2 | IC50 [14]: 1070 µM | IC50 [18]: 33.2 µM | IC50 [19]: 39.6 µM | selectivity ratio [15]: 25.3

CCCCCCCCCCCCNc1c(N(C)CCCN(C)C)c(=O)c1=O
selectivity ratio [3]: 2.6 | IC50 [5]: 64.6 µM | IC50 [6]: 49.5 µM | IC50 [8]: 37.5 µM | selectivity ratio [13]: 3.4 | IC50 [14]: 128 µM | selectivity ratio [15]: 2
